The subject of one assay is non-growing UPEC CFT073. Briefly: Dilution-regrowth assay (screen, hit validation, dose-response) on stationary-phase UPEC. It is filed as cell-based, Escherichia coli. In a few lines: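 Regrowth (OD600 after 6 h, 37 °C) of diluted non-growing CFT073, following 24 h compound treatment of 24 h stationary cultures, defines activity relative to untreated control. Screen at 20 µM, validation at 20, 10, 5 µM (duplicates), dose–response in three biological replicates fitted by five-parameter logistic.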

Another assay deals with S. flexneri 5a M90T. Briefly: MIC in tryptic soy broth, S. flexneri. It is filed as cell-based, Shigella flexneri. The note with it: Shigella flexneri, 5AM90T, read-out: MIC (μM) TSB. Put shortly:
(§1)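 Each strain was exposed to serially diluted compound in broth, in triplicate. The media were TSB for Shigella; CA-MHB at pH 7.4 (HEPES 40 mM) for S. aureus, P. aeruginosa and UPEC; and, for UPEC only, low-pH LPM (pH 5.5, 30 mM MES).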

Assay [1] deals with non-growing P. aeruginosa DSM1117. The assay is described as follows: Dilution-regrowth assay (OD600, start-growth-time) on stationary-phase P. aeruginosa. It is filed as cell-based, Pseudomonas aeruginosa. The note with it: Pseudomonas aeruginosa, DSM1117; P. aeruginosa; regrowth delay of non-growing bacteria, 1:4 CA-MHB pH 7.4, 24 h treatment, OD600 8 h after dilution; read-out: EC50. In a few lines:
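Stationary-phase cultures grown 24 h at 37 °C, 200 rpm, in 1:4 CA-MHB with 40 mM HEPES (pH 7.4), treated 24 h; preliminary compounds at 20 μM, 4 replicates. Regrowth OD600 read every 20 min at 37 °C; start-growth-time is when OD600 exceeds 0.12.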

The test system of another assay is P. aeruginosa DSM1117. The assay is described as follows: MIC, standard microdilution assay, growing P. aeruginosa. Format: cell-based, Pseudomonas aeruginosa. The note with it: Pseudomonas aeruginosa, DSM1117, P. aeruginosa. Put shortly:
as §1
(Broth dilution looks for growth in wells or tubes with falling amounts of substance.)

The structures appear in SMILES notation. Values after ≈ are worked out from the molar mass of the structure shown. Read-outs that look alike come from different tables or passages of the source.

Usually EC50 stands for the concentration giving half of the maximal effect. A word on the MIC: it is the smallest concentration in the dilution series that meets the test's criterion for growth inhibition. For `C=C[C@]1(C)C[C@@H](OC(=O)CSC(C)(C)CNC(=O)[C@H](N)C(C)C)[C@]2(C)[C@H](C)CC[C@]3(CCC(=O)[C@H]32)[C@@H](C)[C@@H]1O` [Valnemulin], the EC50 in the assay on non-growing UPEC CFT073 (Escherichia coli, E. coli, pH 7.4, regrowth delay of non-growing bacteria, 1:4 CA-MHB, 24 h treatment, OD600 6 h after 2500-fold dilution, read-out: EC50) was found to be 373 nM; in assay [1], 324 nM. Besides, the “activity against non-growing UPEC in LPM (pH 5.5) compared to 1:4 CA-MHB (pH 7.4)” value in the assay with non-growing UPEC CFT073 (regrowth delay and killing, Figs. 2 and 3) is “active at pH 7.4 and completely inactive in the acidic medium”. The minimal inhibitory concentration (MIC) with S. flexneri 5a M90T was 16 µM (≈ 9.04 µg/mL); in the assay with P. aeruginosa DSM1117 (1:4 diluted CA-MHB pH 7.4, read-out: MIC (μM) 1:4 CA-MHB) it was above 160 µM; with P. aeruginosa DSM1117 (CA-MHB pH 7.4, read-out: MIC (μM) CA-MHB), above 160 µM.

Source of the values: publication PMC11992225, “Antibacterial compounds against non-growing and intracellular bacteria” (npj Antimicrobials and Resistance, 2025).
